# Reference: publication PMC3031908 (Bioorganic & medicinal chemistry, 2008)
# Biological target: sodium channel site 2 binding site (neuronal voltage-gated sodium channel)
# Experiment: not given
# Details: −pIC50 = −log IC50 (IC50 in μM); training set; ref literature reference; cited from earlier work
row,Compound,"Final model, −pIC50 Obsd"
1,CCCC1(c2ccccc2)NC(=O)NC1=O (stereo not drawn) [Compound 1],−2.21
2,CCCCC1(c2ccccc2)NC(=O)NC1=O (stereo not drawn) [Compound 2],−2.01
3,CCCCCC1(c2ccccc2)NC(=O)N(C)C1=O (stereo not drawn) [Compound 4],−1.59
4,CCCCCCC1(c2ccccc2)NC(=O)NC1=O (stereo not drawn) [Compound 5],−1.11
5,CCCCCCCC1(c2ccccc2)NC(=O)NC1=O (stereo not drawn) [Compound 6],−0.70
6,CCCCCCCCC1(c2ccccc2)NC(=O)NC1=O (stereo not drawn) [Compound 7],−0.70
7,CCN1C(=O)NC(=O)C1(C)c1ccccc1 (stereo not drawn) [Compound 8],−2.86
8,O=C1NC(=O)C2(CCc3ccccc32)N1 (stereo not drawn) [Compound 9],−3.32
9,O=C1NC(=O)C2(CCCc3ccccc32)N1 (stereo not drawn) [Compound 10],−2.93
10,O=C1NC(=O)C2(CCCCc3ccccc32)N1 (stereo not drawn) [Compound 11],−2.40
11,O=C1NC(=O)C2(CCCCCc3ccccc32)N1 (stereo not drawn) [Compound 12],−2.40
12,CC12C(=O)NC(=O)N1CCc1ccccc12 (stereo not drawn) [Compound 13],−2.40
13,CCCCC1(c2ccccc2C)NC(=O)NC1=O (stereo not drawn) [Compound 14],−2.35
14,CCCCC1(c2cccc(C)c2)NC(=O)NC1=O (stereo not drawn) [Compound 15],−1.76
15,CCCCC1(c2ccc(C)cc2)NC(=O)NC1=O (stereo not drawn) [Compound 16],−1.98
16,O=C1NC(=O)C(c2ccccc2)(C2CCCCC2)N1 (stereo not drawn) [Compound 17],−1.76
17,O=C1C(c2ccccc2)N2CCCCN1C2=O (stereo not drawn) [Compound 18],−2.85
18,O=C1C(c2ccccc2)N2CCCCCN1C2=O (stereo not drawn) [Compound 19],−2.63
19,CCCCCCCC(O)(C(N)=O)c1ccccc1 (stereo not drawn) [Compound 20],−0.95
20,"CCOC(=O)c1ccc(N)cc1 [Compound 21, benzocaine]",−2.96
21,COC(=O)[C@H]1[C@@H](OC(=O)c2ccccc2)C[C@@H]2CC[C@H]1N2C [Compound 24],−1.69
22,CC(CNC1CCCCC1)OC(=O)c1ccccc1 (stereo not drawn) [Compound 27],−0.85
23,CCOc1ccc(C(=O)OCCN(CC)CC)cc1 [Compound 29],−1.38
24,"CC1CCCCN1CCCOC(=O)c1ccccc1 (stereo not drawn) [Compound 30, piperocaine]",−1.11
25,CCCNC(C)C(=O)Nc1ccccc1C (stereo not drawn) [Compound 31],−1.73
26,CCN(CC)CCOC(=O)c1ccc(N)cc1 [Compound 32],−2.04
27,CCCOc1ccc(C(=O)OCCN(CC)CC)cc1N [Compound 33],−0.28
28,CCCOc1cc(N)ccc1C(=O)OCCN(CC)CC.Cl [Compound 34],−1.38
29,"O=C1NC(=O)C(c2ccccc2)(c2ccccc2)N1 [Compound 36, phenytoin]",−1.60

# Biological target: human Nav1.2 (Homo sapiens, UniProt Q99250)
# Sequence (Q99250 whole entry): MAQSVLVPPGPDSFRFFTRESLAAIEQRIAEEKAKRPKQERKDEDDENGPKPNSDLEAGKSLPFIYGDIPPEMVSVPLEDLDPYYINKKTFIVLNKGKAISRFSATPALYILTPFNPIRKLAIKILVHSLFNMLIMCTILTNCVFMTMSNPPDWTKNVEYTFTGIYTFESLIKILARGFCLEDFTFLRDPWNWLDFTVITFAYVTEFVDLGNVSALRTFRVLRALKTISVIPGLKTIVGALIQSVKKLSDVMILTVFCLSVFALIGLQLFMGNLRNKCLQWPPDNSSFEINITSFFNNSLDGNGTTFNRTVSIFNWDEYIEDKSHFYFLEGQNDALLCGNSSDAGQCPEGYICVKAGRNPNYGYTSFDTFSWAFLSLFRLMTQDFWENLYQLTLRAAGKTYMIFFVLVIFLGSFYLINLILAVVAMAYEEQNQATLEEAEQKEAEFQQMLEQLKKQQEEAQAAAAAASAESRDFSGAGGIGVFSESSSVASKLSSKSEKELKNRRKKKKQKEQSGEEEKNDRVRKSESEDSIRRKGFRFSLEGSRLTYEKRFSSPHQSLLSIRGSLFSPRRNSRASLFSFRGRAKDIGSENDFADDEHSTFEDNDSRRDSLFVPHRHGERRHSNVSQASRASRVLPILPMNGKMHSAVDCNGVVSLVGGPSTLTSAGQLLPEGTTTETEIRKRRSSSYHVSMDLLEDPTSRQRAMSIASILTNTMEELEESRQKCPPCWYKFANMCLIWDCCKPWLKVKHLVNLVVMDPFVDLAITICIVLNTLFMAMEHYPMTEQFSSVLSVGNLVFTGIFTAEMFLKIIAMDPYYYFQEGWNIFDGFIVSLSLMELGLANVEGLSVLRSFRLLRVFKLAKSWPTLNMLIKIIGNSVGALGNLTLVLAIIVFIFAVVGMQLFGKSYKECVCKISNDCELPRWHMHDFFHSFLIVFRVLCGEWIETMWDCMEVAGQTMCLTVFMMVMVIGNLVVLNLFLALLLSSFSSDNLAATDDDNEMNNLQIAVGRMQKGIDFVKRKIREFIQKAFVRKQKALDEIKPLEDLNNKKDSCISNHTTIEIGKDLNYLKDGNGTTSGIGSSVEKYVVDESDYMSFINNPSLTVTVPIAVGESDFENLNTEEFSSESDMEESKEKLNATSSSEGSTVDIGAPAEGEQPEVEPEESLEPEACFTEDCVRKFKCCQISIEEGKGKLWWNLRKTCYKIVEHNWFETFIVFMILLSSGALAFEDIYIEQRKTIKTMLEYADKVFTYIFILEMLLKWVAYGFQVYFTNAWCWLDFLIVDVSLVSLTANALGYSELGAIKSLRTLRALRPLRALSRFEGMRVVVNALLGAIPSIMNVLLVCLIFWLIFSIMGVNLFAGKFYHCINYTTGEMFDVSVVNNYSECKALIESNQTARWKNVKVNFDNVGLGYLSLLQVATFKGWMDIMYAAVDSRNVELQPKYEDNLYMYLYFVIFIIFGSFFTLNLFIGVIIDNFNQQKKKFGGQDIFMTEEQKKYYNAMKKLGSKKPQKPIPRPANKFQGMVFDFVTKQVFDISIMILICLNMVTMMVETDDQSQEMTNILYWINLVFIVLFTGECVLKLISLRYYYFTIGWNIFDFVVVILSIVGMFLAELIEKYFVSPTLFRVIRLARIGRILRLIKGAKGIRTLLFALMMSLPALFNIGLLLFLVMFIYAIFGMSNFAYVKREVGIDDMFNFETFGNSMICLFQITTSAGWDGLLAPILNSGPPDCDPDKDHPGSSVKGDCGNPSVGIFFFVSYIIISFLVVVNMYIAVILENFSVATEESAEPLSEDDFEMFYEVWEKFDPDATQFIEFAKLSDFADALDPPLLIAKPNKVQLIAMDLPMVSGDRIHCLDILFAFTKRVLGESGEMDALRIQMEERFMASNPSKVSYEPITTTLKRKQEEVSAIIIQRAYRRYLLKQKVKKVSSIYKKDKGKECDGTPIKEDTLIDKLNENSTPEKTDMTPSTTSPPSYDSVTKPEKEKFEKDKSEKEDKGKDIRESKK
# Experiment: not given
# Format: cell-based
# Details: HEK cells
row,Compound,reversibility of block on washout
1,"CCCCCCCC(O)(C(N)=O)c1cc(C)c(NC(=O)CN(CC)CC)c(C)c1 (stereo not drawn) [Compound 37, 2-[4-(2-Diethylamino-acetylamino)-3,5-dimethylphenyl]-2-hydroxy-nonanoic acid amide]",partially reversible upon washout

# Tested on: sodium channel site 2 binding site (neuronal voltage-gated sodium channel)
# Experiment: [3H]-BTX-B binding
# Parameters: species or system rat
# Details: 37 vs 39 (83% vs 16%) at 40 μM
row,Compound,increase in inhibition on heptyl for phenyl substitution at R1
1,"CCCCCCCC(O)(C(N)=O)c1cc(C)c(NC(=O)CN(CC)CC)c(C)c1 (stereo not drawn) [Compound 37, 2-[4-(2-Diethylamino-acetylamino)-3,5-dimethylphenyl]-2-hydroxy-nonanoic acid amide]",greater than 5 fold

# Same assay, conditions: read-out: observed (actual) IC50, [3H]-BTX
row,Compound,IC50
1,"CCCCCCCC(O)(C(N)=O)c1cc(C)c(NC(=O)CN(CC)CC)c(C)c1 (stereo not drawn) [Compound 37, 2-[4-(2-Diethylamino-acetylamino)-3,5-dimethylphenyl]-2-hydroxy-nonanoic acid amide]",6 µM
2,"CCN(CC)CC(=O)Nc1ccc(C2(c3ccccc3)NC(=O)NC2=O)cc1 (stereo not drawn) [Compound 41, 2-Diethylamino-N-[4-(2,5-dioxo-4-phenyl-imidazolidin-4-yl)-phenyl]-acetamide]",~39.8 µM
3,"CCN(CC)CC(=O)Nc1c(C)cc(C2(c3ccccc3)NC(=O)NC2=O)cc1C (stereo not drawn) [Compound 42, 2-Diethylamino-N-[4-(2,5-dioxo-4-phenyl-imidazolidin-4-yl)-2,6-dimethyl-phenyl]-acetamide]",~39.8 µM
4,"CCCCCCCC1(c2cc(C)c(NC(=O)CN(CC)CC)c(C)c2)NC(=O)NC1=O (stereo not drawn) [Compound 44, 2-Diethylamino-N-[4-(4-heptyl-2,5-dioxo-imidazolidin-4-yl)-2,6-dimethyl-phenyl]-acetamide]",13.5 µM

# Same assay, conditions: test set; −log IC50 (IC50 in μM)
row,Compound,−pIC50 Obsd
1,"CCCCCCCC(O)(C(N)=O)c1cc(C)c(NC(=O)CN(CC)CC)c(C)c1 (stereo not drawn) [Compound 37, 2-[4-(2-Diethylamino-acetylamino)-3,5-dimethylphenyl]-2-hydroxy-nonanoic acid amide]",-0.78
2,"CCN(CC)CC(=O)Nc1ccc(C2(c3ccccc3)NC(=O)NC2=O)cc1 (stereo not drawn) [Compound 41, 2-Diethylamino-N-[4-(2,5-dioxo-4-phenyl-imidazolidin-4-yl)-phenyl]-acetamide]",-1.60
3,"CCN(CC)CC(=O)Nc1c(C)cc(C2(c3ccccc3)NC(=O)NC2=O)cc1C (stereo not drawn) [Compound 42, 2-Diethylamino-N-[4-(2,5-dioxo-4-phenyl-imidazolidin-4-yl)-2,6-dimethyl-phenyl]-acetamide]",-1.60
4,"CCCCCCCC1(c2cc(C)c(NC(=O)CN(CC)CC)c(C)c2)NC(=O)NC1=O (stereo not drawn) [Compound 44, 2-Diethylamino-N-[4-(4-heptyl-2,5-dioxo-imidazolidin-4-yl)-2,6-dimethyl-phenyl]-acetamide]",-1.13
